Measurements: US5221675A, “Aza-spirocyclic compounds that enhance cholinergic neurotransmission” (Abbott Laboratories, priority 1991, dated 1993)

Key:
M1 muscarinic receptor = target: T1, M1 muscarinic receptor (Rattus norvegicus, UniProt P08482); experiment: Competition with [3H]pirenzepine at cortical M1 muscarinic receptors; assay type: binding; settings: Table 3; read-out: M1 Ki
T1 construct: from tissue; host or cells: adult rat fronto-parietal cortex membranes (homogenate)
T1 sequence (P08482 1-460): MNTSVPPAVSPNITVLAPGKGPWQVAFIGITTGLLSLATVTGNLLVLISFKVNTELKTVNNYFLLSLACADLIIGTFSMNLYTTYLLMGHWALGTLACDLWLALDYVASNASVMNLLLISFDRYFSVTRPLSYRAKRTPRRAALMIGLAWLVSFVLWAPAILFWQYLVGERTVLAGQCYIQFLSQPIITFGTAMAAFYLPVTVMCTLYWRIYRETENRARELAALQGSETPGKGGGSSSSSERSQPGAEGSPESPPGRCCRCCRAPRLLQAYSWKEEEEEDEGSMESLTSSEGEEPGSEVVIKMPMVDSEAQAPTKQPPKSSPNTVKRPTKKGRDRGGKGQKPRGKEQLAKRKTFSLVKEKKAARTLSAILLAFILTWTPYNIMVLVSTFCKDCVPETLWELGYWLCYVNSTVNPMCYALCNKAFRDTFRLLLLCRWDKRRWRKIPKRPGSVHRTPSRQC

M2 muscarinic receptor = M2 muscarinic receptor (Rattus norvegicus, UniProt P10980); assay type: binding; settings: read-out: M2 Ki; Table 3
[1] = target: neuronal nicotinic cholinergic receptor; experiment: [3H]-MCC binding to nicotinic receptors in whole rat brain membranes; settings: for Ki: Table 3, [3H]-MCC, rat brain membranes, 4° C., read-out: Nic Ki (binding to the nicotinic receptor); for Nic % Enhancement @ Max. Effect: at 0.0001 (mM) as printed; for Nic Conc. @ Max. Effect: concentration giving maximal enhancement of [3H]-MCC binding; for Affinity for M1/M2 muscarinic and nicotinic neuronal binding sites: muscarinic (M1 or M2) and nicotinic; for Affinity for M1/M2 muscarinic and nicotinic neuronal binding sites / Binding of other nicotinic ligands to the neuronal nicotinic receptor: words
Procedure: Binding of [^3 H]methylcarbamylcholine ([^3 H]-MCC) to nicotinic receptors is accomplished using crude synaptic membranes prepared from whole rat brain (Snyder and Enna, Brain Res. 1975, 100:81). Washed membranes are stored at -80° C. prior to use. Frozen aliquots are slowly thawed and resuspended in 20 volumes of buffer (containing: 120 mM NaCl, 5 mM KCl, 2 mM MgCl2, 2 mM CaCl2, and 50 mM Tris-Cl, pH 7.4 @4° C.). After centrifuging at 20K×9 for 15 minutes, the pellets are resuspended in 30 volumes of buffer. Homogenate ([…]) is added to triplicate tubes containing concentrations of test compound and [^3 H]-MCC (3 nM) in a final volume of […]. Samples are incubated for 60 minutes at 4° C., then rapidly filtered through Whatman GF/B filters presoaked in 0.5% polyethylimine using 3×4 ml of ice-cold buffer. The filters are counted in 4 mL of Ecolume (ICN). Nonspecific binding is determined in the presence of 10 […] and values were expressed as a percentage of total binding. IC50 values are determined with the ALLFIT curve-fitting program and IC50 values are converted to Ki values using the Cheng and Prusoff correction, (Ki=IC50 /(1+[ligand]/Kd ligand). Alternatively, data are expressed as a percentage of the total specific binding.

male Sprague-Dawley rats = experiment: Mean arterial pressure, resting CBF and basal forebrain-elicited cortical CBF (laser-Doppler flowmetry); assay type: in vivo, rat
Procedure: General Surgery for CBF Measurement--Methods for surgical preparation of rats for electrical stimulation of brain and measurement of rCBF have been previously described (Nakai et al., Am. J. Physiol. 1982, 243:226) and are summarized below.
Studies are conducted on male Sprague-Dawley rats that are maintained in a thermally controlled (26°-27° C.) light-cycled (07.00 hour on-019.00 hour off) environment, fed standard rat chow and given water ad libitum. Anesthesia is induced with halothane (3.5%; balance 02) delivered through a nose mask and maintained at 2% during the initial surgery. Thin-wall vinyl catheters (o.d.=0.03 inch) are placed in each femoral artery and vein, and the trachea is cannulated.
Animals are subsequently co-anesthetized with urethane (1.5 g/kg, s.c.) and placed in a stereotaxic frame with the head positioned so that the floor of the IVth ventricle was horizontal (incisor bar position: -11 mm.). After connecting the tracheal cannula to a small-animal respirator, the animals are paralyzed with d-tubocurarine (0.6 mg/kg/h, i.m.), and ventilated (80 cpm) with 100% 02. Arterial pressure (AP) and heart rate (HR) are continuously monitored through one of the arterial catheters connected to a Statham P23Db transducer that is coupled to a chart recorder. The level of anesthesia during surgery or subsequent experimental testing is assessed by the AP response to tail pinch, with increasing levels of arousal giving rise to irregular AP readings. Booster doses of urethane (250 mg/kg, s.c.) are given as needed.
Bilateral craniotomies (approximately 4 mm×11 mm) are performed overlying the frontoparietal cortices taking care to leave the dura intact. Halothane is delivered at a reduced rate of 1% during cranial surgery and discontinued afterward. A small volume (about 0.2 ml) of arterial blood is sampled after completion of all surgery for measurement of PO2, PCO2 and pH by a blood gas analyzer. Arterial blood gases are maintained so that PO2 was greater than 100 mm Hg, PCO2 =33-38 mm Hg, and pH=7.35-7.45. Maintaining these values is accomplished by adjusting the stroke volume of the ventilator. Once appropriate physiological parameters are obtained (approximately 30 min), the experimental protocol is initiated.
Electrical Stimulation of the Basal Forebrain (BF)--The BF is stimulated with cathodal current delivered through a stainless steel concentric bipolar electrode ([…]) made by Rhodes Medical Instruments (Model SNEX-100). Electrical pulses are generated by a square wave stimulator (Grass, Model S-88) and constant current is passed through a photoelectric stimulus-isolation unit (Grass, Model PSIU6). The stimulus current is measured on an oscilloscope by continuously displaying the voltage drop across a 10-ohm resistor.
The procedure for eliciting an increased cortical CBF response requires the stereotaxic placement of the stimulating electrode into the BF. For positioning, the electrode is inclined posteriorly to 18 degrees, and the stereotaxic coordinates used were 5.0 mm posterior to, and 2.6 mm lateral to bregma (stereotaxic zero reference point). […] These parameters have been shown previously to elicit maximal increases in cortical CBF (Arneric, Excerpta Medica International Congress Series, Vol. 869:381, 1989). The region of the BF that selectively affects cortical CBF is restricted, with electrode movements of 0.5 mm dorsal or ventral to this site eliciting potent vasodepressor responses in addition to the increases in CBF. […] When CBF increases of approximately 100% or greater are repeatedly obtained in the absence of significant changes in AP (<10 mm Hg) or HR (<10 beats/min.), and when the perfusion rate is stable in the absence of BF stimulation, the experimental testing is started.
CBF Measurement with Laser--Dopler Flowmetry (LDF)--The principles and technical aspects of LDF are presented in detail elsewhere (Bonner et al., Appl. Opt. 1981, 20:2097; Stern et al., Am. J. Physiol. 1977, 232:H441). […]

[2] = in vivo; cited from earlier work
[3] = test system: Rat striatal muscarinic receptors; experiment: Agonist intrinsic activity: inhibition of forskolin-activated [3H]cAMP in dissociated rat striatum; assay type: cell-based; settings: selective muscarinic antagonist
From the text: Rat striatal muscarinic receptors are coupled to the inhibition of the conversion of adenosine triphosphate (ATP) to cyclic adenosine monophosphate (cAMP). […] The ATP stores in dissociated rat striatum were labeled with [^3 H]adenine and [^3 H]-cAMP levels were elevated with 10 um forskolin.

[4] = 0.01 mg/kg, iv, mean of three experiments

Chain of M2 muscarinic receptor (P10980 whole entry): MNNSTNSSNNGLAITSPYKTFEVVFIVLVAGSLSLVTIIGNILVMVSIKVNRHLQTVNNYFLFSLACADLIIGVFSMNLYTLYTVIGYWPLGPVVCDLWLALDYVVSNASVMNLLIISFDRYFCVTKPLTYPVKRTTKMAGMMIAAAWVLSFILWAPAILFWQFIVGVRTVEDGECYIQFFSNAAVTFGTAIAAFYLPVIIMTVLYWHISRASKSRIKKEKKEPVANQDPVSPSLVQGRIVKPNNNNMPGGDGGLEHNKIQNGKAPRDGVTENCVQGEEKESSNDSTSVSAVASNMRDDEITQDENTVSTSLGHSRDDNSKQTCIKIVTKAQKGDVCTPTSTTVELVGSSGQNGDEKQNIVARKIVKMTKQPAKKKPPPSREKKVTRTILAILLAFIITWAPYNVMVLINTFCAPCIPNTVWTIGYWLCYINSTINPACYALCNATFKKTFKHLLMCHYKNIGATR

Structure (SMILES) | Ki (M1 muscarinic receptor) [µM] | Ki (M2 muscarinic receptor) [µM] | Ki [1] [µM] | Nic % Enhancement @ Max. Effect [1] | Nic Conc. @ Max. Effect [1] [mM] | Affinity for M1/M2 muscarinic and nicotinic neuronal binding sites [1] | Binding of other nicotinic ligands to the neuronal nicotinic receptor [1] | further results
CN1C(=O)N(c2ccccc2)C2(CCNCC2)C1=O.Cl [Example 3, 3-Methyl-1-phenyl-1,3,8-triazaspiro[4,5]decane-2,4-dione hydrochloride] | > 100 | > 100 | > 100 | +42% | 0.0001 | little affinity | potently enhance the binding of other nicotinic ligands | BF-Elicited CBF Response, % Change from Pre-Drug CONTROL (male Sprague-Dawley rats; [4]): +39%; MAP, % Change from Pre-Drug CONTROL (male Sprague-Dawley rats; [4]): +5%; Resting CBF, % Change from Pre-Drug CONTROL (male Sprague-Dawley rats; [4]): +23%; Effects on MAP (male Sprague-Dawley rats; 0.01-10.0 mg/kg iv): No remarkable effects on MAP; Effects on blood pressure (male Sprague-Dawley rats; iv): no overt effects on blood pressure; Resting CBF and BF-elicited CBF response (male Sprague-Dawley rats; low concentrations, iv, words): effective in enhancing resting CBF and the BF-elicited CBF response
C[N+](C)(C)CCOC(N)=O [carbachol] | – | – | – | – | – | – | – | CNS penetration [2]: poor CNS penetration
COC(=O)C1=CCCN(C)C1 [arecoline] | – | – | – | – | – | – | – | Pharmacokinetics [2]: unfavorable pharmacokinetics
CN1[C@@H]2CC[C@H]1C[C@@H](OC(=O)C(CO)c1ccccc1)C2 (some centres unmarked) [atropine, reference compound] | – | – | – | – | – | – | – | Blockade of all agonist responses [3]: fully blocked
CN1CCC2(CC1)C(=O)N(C)C(=O)N2c1ccccc1 [Example 4, 3,8-Dimethyl-1-phenyl-1,3,8-triazaspiro[4,5]decane-2,4-dione] | 28 | > 100 | > 100 | +33% | 0.0001 | little affinity | potently enhance the binding of other nicotinic ligands | –
